Measurements taken from US6407103B2, “Indeno [1,2-c] pyrazol-4-ones and their uses” (Bristol-Myers Squibb Pharma Company, priority 1998, dated 2002).

Compound | melting point
Cn1ccc(-c2[nH]nc3c2C(=O)c2c(NC(N)=O)cccc2-3)c1 [Example LXXXVIX, 3-(1-methyl-3-pyrrolyl)-5-(carbamoylamino)indeno[1,2-c]pyrazol-4-one] | 269 °C
COc1ccc(-c2[nH]nc3c2C(=O)c2c(NC(=O)Cc4ccccc4)cccc2-3)cc1 [Example VIII, 3-(4-methoxyphenyl)-5-(phenylacetamido)indeno[1,2-c]pyrazol-4-one] | 280 °C
COc1ccc(-c2[nH]nc3c2C(=O)c2c(NC(=O)Cc4ccc(Cl)cc4)cccc2-3)cc1 [Example X, 3-(4-methoxyphenyl)-5-((4-chlorophenyl)acetamido)indeno[1,2-c]pyrazol-4-one] | 238 °C
CC(=O)Nc1cccc2c1C(=O)c1c-2n[nH]c1-c1sccc1C [Example XC, 3-(3-methyl-2-thienyl)-5-(acetamido)indeno[1,2-c]pyrazol-4-one] | 275 °C
CCc1[nH]nc2c1C(=O)c1c(NC(N)=O)cccc1-2 [Example XCI, 3-(ethyl)-5-(carbamoylamino)indeno[1,2-c]pyrazol-4-one] | > 250 °C
CCCc1[nH]nc2c1C(=O)c1c(NC(N)=O)cccc1-2 [Example XCII, 3-(n-propyl)-5-(carbamoylamino)indeno[1,2-c]pyrazol-4-one] | 187 °C
CC(C)c1[nH]nc2c1C(=O)c1c(NC(N)=O)cccc1-2 [Example XCIII, 3-(i-propyl)-5-(carbamoylamino)indeno[1,2-c]pyrazol-4-one] | > 250 °C
CCOC(=O)c1ccc(-c2[nH]nc3c2C(=O)c2c(NC(N)=O)cccc2-3)s1 [Example XCIX, 3-(5-carboethoxy-2-thienyl)-5-(carbamoylamino)indeno[1,2-c]pyrazol-4-one] | > 280 °C
Cc1ccsc1-c1[nH]nc2c1C(=O)c1c(NC(N)=O)cccc1-2 [Example XCVII, 3-(3-methyl-2-thienyl)-5-(carbamoylamino)indeno[1,2-c]pyrazol-4-one] | 270 °C
Cc1ccc(-c2[nH]nc3c2C(=O)c2c(NC(N)=O)cccc2-3)s1 [Example XCVIII, 3-(5-methyl-2-thienyl)-5-(carbamoylamino)indeno[1,2-c]pyrazol-4-one] | > 280 °C
COc1ccc(-c2[nH]nc3c2C(=O)c2c(NC(=O)Cc4cccc(OC)c4)cccc2-3)cc1 [Example XI, 3-(4-methoxyphenyl)-5-((3-methoxyphenyl)acetamido)indeno[1,2-c]pyrazol-4-one] | > 300 °C
COc1ccc(CC(=O)Nc2cccc3c2C(=O)c2c-3n[nH]c2-c2ccc(OC)cc2)cc1 [Example XII, 3-(4-methoxyphenyl)-5-((4-methoxyphenyl)acetamido)indeno[1,2-c]pyrazol-4-one] | 280 °C
COc1ccc(-c2[nH]nc3c2C(=O)c2c(NC(=O)Cc4ccc(OC)c(OC)c4)cccc2-3)cc1 [Example XIII, 3-(4-methoxyphenyl)-5-((3,4-dimethoxyphenyl)acetamido)indeno[1,2-c]pyrazol-4-one] | > 300 °C
COc1ccc(-c2[nH]nc3c2C(=O)c2c(NC(=O)Cc4cc(OC)ccc4OC)cccc2-3)cc1 [Example XIV, 3-(4-methoxyphenyl)-5-((2,5-dimethoxyphenyl)acetamido)indeno[1,2-c]pyrazol-4-one] | 226 °C
COc1ccc(-c2[nH]nc3c2C(=O)c2c(NC(=O)Cc4ccccc4OC)cccc2-3)cc1 [Example XIX, 3-(4-methoxyphenyl)-5-((2-methoxyphenyl)acetamido)indeno[1,2-c]pyrazol-4-one] | 255 °C
COc1ccc(-c2[nH]nc3c2C(=O)c2c(NC(=O)Cc4ccc(N=[N+]=[N-])cc4)cccc2-3)cc1 [Example XL, 3-(4-methoxyphenyl)-5-((4-azidophenyl)acetamido)indeno[1,2-c]pyrazol-4-one] | > 300 °C
COc1ccc(-c2[nH]nc3c2C(=O)c2c(NC(=O)Cc4ccc(N)cc4)cccc2-3)cc1 [Example XLI, 3-(4-methoxyphenyl)-5-((4-aminophenyl)acetamido)indeno[1,2-c]pyrazol-4-one] | 283 °C
CC(=O)Nc1cccc2c1C(=O)c1c-2n[nH]c1-c1cccnc1 [Example XLVIII, 3-(3-pyridyl)-5-(acetamido)indeno [1,2-c]pyrazol-4-one] | > 300 °C
COc1ccccc1-c1[nH]nc2c1C(=O)c1c(NC(C)=O)cccc1-2 [Example XV, 3-(2-methoxyphenyl)-5-(acetamido)indeno[1,2-c]pyrazol-4-one] | 276 °C
COc1ccc(-c2[nH]nc3c2C(=O)c2c(NC(=O)Cc4ccccc4Cl)cccc2-3)cc1 [Example XXII, 3-(4-methoxyphenyl)-5-((2-chlorophenyl)acetamido)indeno[1,2-c]pyrazol-4-one] | 300 °C

More lines, now with the values ahead:

melting point | Compound
> 300 °C | COc1ccc(-c2[nH]nc3c2C(=O)c2c(NC(=O)CN4CCN(c5ccccn5)CC4)cccc2-3)cc1 [Example LXX, 3-(4-methoxyphenyl)-5-(4-(2-pyridyl)piperazinoacetamido)indeno[1,2-c]pyrazol-4-one]
> 300 °C | COc1ccc(-c2[nH]nc3c2C(=O)c2c(NC(=O)CN4CCN(CCN)CC4)cccc2-3)cc1 [Example LXXI, 3-(4-methoxyphenyl)-5-(4-(aminoethyl)piperazinoacetamido)indeno[1,2-c]pyrazol-4-one]
> 300 °C | COc1ccc(-c2[nH]nc3c2C(=O)c2c(NC(=O)CN4CCC(C(N)=O)CC4)cccc2-3)cc1 [Example LXXII, 3-(4-methoxyphenyl)-5-(4-carbamoylpiperidinoacetamido)indeno[1,2-c]pyrazol-4-one]
> 300 °C | COc1ccc(-c2[nH]nc3c2C(=O)c2c(NC(=O)CN4CCC(O)CC4)cccc2-3)cc1 [Example LXXIII, 3-(4-methoxyphenyl)-5-(4-hydroxypiperidinoacetamido)indeno[1,2-c]pyrazol-4-one]
> 300 °C | CN1CCN(CC(=O)Nc2cccc3c2C(=O)c2c-3n[nH]c2-c2ccc(N(C)C)cc2)CC1 [Example LXXVIII, 3-(4-(dimethylamino)phenyl)-5-((4-methylpiperazino)acetamido)indeno[1,2-c]pyrazol-4-one]
267 °C | CN(C)c1ccc(-c2[nH]nc3c2C(=O)c2c(NC(=O)CN4CCC(O)CC4)cccc2-3)cc1 [Example LXXX, 3-(4-(N,N-dimethylamino)phenyl)-5-(4-hydroxypiperidinoacetamido)indeno[1,2-c]pyrazol-4-one]
258 °C | O=C(CN1CCOCC1)Nc1cccc2c1C(=O)c1c-2n[nH]c1-c1ccc(N2CCOCC2)cc1 [Example LXXXI, 3-(4-morpholinophenyl)-5-(morpholinoacetamido)indeno[1,2-c]pyrazol-4-one]
245 °C | O=C(CN1CCC(O)CC1)Nc1cccc2c1C(=O)c1c-2n[nH]c1-c1ccc(N2CCOCC2)cc1 [Example LXXXIII, 3-(4-(4-morpholinyl)phenyl)-5-((4-hydroxy-1-piperidinyl)acetamido)indeno[1,2-c]pyrazol-4-one]
240 °C | NCC1CCN(CC(=O)Nc2cccc3c2C(=O)c2c-3n[nH]c2-c2ccc(N3CCOCC3)cc2)CC1 [Example LXXXIV, 3-(4-morpholinophenyl)-5-(4-(aminomethyl)piperidinoacetamido)indeno[1,2-c]pyrazol-4-one]
> 300 °C | CN1CCN(NC(=O)Nc2cccc3c2C(=O)c2c-3n[nH]c2-c2ccc(N(C)C)cc2)CC1 [Example LXXXV, 3-(4-(N,N-dimethylamino)phenyl)-5-(4-methylpiperazinocarbamoylamino)indeno[1,2-c]pyrazol-4-one]
> 300 °C | COc1ccc(-c2[nH]nc3c2C(=O)c2c(NC(=S)NN4CCN(C)CC4)cccc2-3)cc1 [Example LXXXVI, 3-(4-methoxyphenyl)-5-((4-methylpiperazino)thionocarbamoylamino)indeno[1,2-c]pyrazol-4-one]
287 °C | CCC(=O)Nc1cccc2c1C(=O)c1c-2n[nH]c1-c1ccc(OC)cc1 [Example V, 3-(4-methoxyphenyl)-5-(propanamido)indeno[1,2-c]pyrazol-4-one]
267 °C | COc1ccc(-c2[nH]nc3c2C(=O)c2c(NC(=O)C4CCCC4)cccc2-3)cc1 [Example VI, 3-(4-methoxyphenyl)-5-(cyclopentanecarboxamido)indeno[1,2-c]pyrazol-4-one]
297 °C | COc1ccc(-c2[nH]nc3c2C(=O)c2c(NC(=O)C4CCC4)cccc2-3)cc1 [Example VII, 3-(4-methoxyphenyl)-5-(cyclobutanecarboxamido)indeno[1,2-c]pyrazol-4-one]
> 300 °C | COc1ccc(-c2[nH]nc3c2C(=O)c2c(NC(=O)Nc4ccccc4)cccc2-3)cc1 [Example XLII, 3-(4-methoxyphenyl)-5-((phenylcarbamoyl)amino)indeno [1,2-c]pyrazol-4-one]
> 300 °C | CC(=O)Nc1cccc2c1C(=O)c1c-2n[nH]c1-c1ccncc1 [Example XLIX, 3-(4-pyridyl)-5-(acetamido)indeno [1,2-c]pyrazol-4-one]
> 300 °C | CC(=O)Nc1cccc2c1C(=O)c1c-2n[nH]c1-c1ccc(O)cc1 [Example XLVI, 3-(4-hydroxyphenyl)-5-(acetamido)indeno[1,2-c]pyrazol-4-one]
280 °C | COc1ccc(-c2[nH]nc3c2C(=O)c2c(NC=O)cccc2-3)cc1 [Example XLVII, 3-(4-methoxyphenyl)-5-(formamido)indeno[1,2-c]pyrazol-4-one]
> 300 °C | COc1ccc(-c2[nH]nc3c2C(=O)c2c(NC(C)=O)cccc2-3)cc1OC [Example XVI, 3-(3,4-dimethoxyphenyl)-5-(acetamido)indeno[1,2-c]pyrazol-4-one]
> 300 °C | COc1ccc(-c2[nH]nc3c2C(=O)c2c(NC(=O)CN)cccc2-3)cc1 [Example XXIII, 3-(4-methoxyphenyl)-5-(aminoacetamido)indeno[1,2-c]pyrazol-4-one]
243 °C | COc1ccc(-c2[nH]nc3c2C(=O)c2c(NC(=O)CNCCO)cccc2-3)cc1 [Example XXIV, 3-(4-methoxyphenyl)-5-((2-hydroxyethyl)aminoacetamido)indeno[1,2-c]pyrazol-4-one]
